The conditions of test [1]: log Kapp(Hg(II)) - log Kapp(Zn(II)), pH 7.4, 298 K. The source says:
(§1) The selectivity between two metals M/M′ corresponds to the selectivity of the ligand for the metal M compared with that for the metal M′, this selectivity being equal to: log(Kapp(M)/Kapp(M′))=log Kapp(M)−log Kapp(M′)

The conditions of test [2]: pH 7.4, 298 K.
Description: These treatments must be followed for life, and must never be interrupted. They are based on chelating drugs which reduce the absorption of copper in the body, or which increase the excretion of this metal. The treatments must be subject to periodic monitoring, so as to detect the appearance of undesirable side effects.
as §1

[3] abbreviates: log Kapp(Cu(II)) - log Kapp(Zn(II)).

This note sets out measurements from US9856294B2, “Cyclodecapeptide compounds for use as drugs” (Commissariat A L'Energie Atomique Et Aux Energies …, priority 2010, dated 2018).

Where two headings read alike, the source gives them in different places.

As to `OCC(S)CS` (stereo not shown) [BAL, 2,3-dimercaptopropanol], the “Selectivity Hg/Zn” value in test [1] was 12.2.
`O=C(O)CN(CCN(CC(=O)O)CC(=O)O)CC(=O)O` [EDTA, ethylenediaminetetraacetic acid]: in test [1], the “Selectivity Hg/Zn” value stood at 5. Besides, the “Selectivity Cu/Zn” value in test [2] (setting [3]) was 2.3.
On to `CC(C)(S)[C@@H](N)C(=O)O` [Pen, D-penicillamine], for which, in test [1], the “Selectivity Hg/Zn” value was determined as 9.1. Besides, the “Selectivity Cu/Zn” value in test [2] (log Kapp(Cu(I)) - log Kapp(Zn(II))) was found to be 2.5.
On to `NCCNCCNCCN` [Trien, triethylenetetramine], for which the “Selectivity Hg/Zn” value in test [1] is reported as 12.7. Further, the “Selectivity Cu/Zn” value in test [2] (setting [3]) is on record as 8.1.
